Measured values from ChEMBL document CHEMBL5532639, “Heterocyclic pyrimidine derivatives as promising antibacterial agents” (Eur J Med Chem, 2023).
Values after ≈ are worked out from the molar mass of the structure shown.

Columns and labels:
Bacillus subtilis [1] = experiment: Antibacterial activity against Bacillus subtilis assessed as reduction in bacterial growth incubated for 24 hrs by CLSI protocol based Mueller-Hinton broth assay; assay type: functional
Shigella sonnei = experiment: Antibacterial activity against Shigella sonnei assessed as inhibition of bacterial growth measured after 18 to 20 hrs by broth microdilution method; assay type: functional; conditions: time 18-20 hrs
Salmonella enterica = experiment: Antimicrobial activity against Salmonella enterica assessed as inhibition of microbial growth incubated for 18 hrs by CLSI protocol based Mueller-Hinton broth assay; assay type: functional
Morganella morganii [2] = experiment: Antibacterial activity against Morganella morganii UM573 assessed as bacterial growth inhibition incubated for 20 to 22 hrs by CLSI based analysis; assay type: functional; conditions: time 20-22 hrs
Edwardsiella tarda = experiment: Antimicrobial activity against Edwardsiella tarda assessed as inhibition of microbial growth incubated for 18 hrs by CLSI protocol based Mueller-Hinton broth assay; assay type: functional
Vibrio parahaemolyticus = experiment: Antibacterial activity against Vibrio parahaemolyticus assessed as reduction in bacterial growth inhibition measured after 24 hrs by Mueller Hinton Agar dilution method; assay type: functional
Salmonella typhimurium [3] = experiment: Antimicrobial activity against Salmonella typhimurium DT104 assessed as inhibition of microbial growth incubated for 18 hrs by CLSI protocol based Mueller-Hinton broth assay; assay type: functional, Salmonella enterica subsp. enterica serovar Typhimurium; conditions: Salmonella enterica
Plesiomonas shigelloides = experiment: Antibacterial activity against Plesiomonas shigelloides assessed as inhibition of bacterial growth measured after 18 to 20 hrs by broth microdilution method; assay type: functional; conditions: time 18-20 hrs
[4] = test system: Salmonella enterica subsp. enterica serovar Paratyphi B; experiment: Antibacterial activity against Salmonella paratyphi B CICC 21495 assessed as reduction in […]; assay type: functional; conditions: time lower 48 hrs
Escherichia coli [5] = experiment: Antimicrobial activity against Escherichia coli assessed as inhibition of microbial growth incubated for 18 hrs by CLSI protocol based Mueller-Hinton broth assay; assay type: functional
Shigella boydii = experiment: Antibacterial activity against Shigella boydii assessed as inhibition of bacterial growth measured after 18 to 20 hrs by broth microdilution method; assay type: functional; conditions: time 18-20 hrs
Salmonella typhimurium [6] = experiment: Antibacterial activity against Salmonella typhimurium DT104 assessed as reduction in bacterial growth inhibition measured after 24 hrs by Mueller Hinton Agar dilution method; assay type: functional, Salmonella enterica subsp. enterica serovar Typhimurium; conditions: Salmonella enterica
Pseudomonas aeruginosa [7] = experiment: Antimicrobial activity against Pseudomonas aeruginosa assessed as inhibition of microbial growth incubated for 18 hrs by CLSI protocol based Mueller-Hinton broth assay; assay type: functional
Enterobacter sp. = experiment: Antibacterial activity against Enterobacter sp. assessed as inhibition of bacterial growth; assay type: functional
Citrobacter freundii = experiment: Antibacterial activity against multidrug-resistant Citrobacter freundii assessed as bacterial growth inhibition incubated for 20 to 22 hrs by CLSI based analysis; assay type: functional; conditions: time 20-22 hrs
Aeromonas hydrophila = experiment: Antibacterial activity against Aeromonas hydrophila assessed as inhibition of microbial growth incubated for 24 hrs by CLSI protocol based Mueller-Hinton broth assay; assay type: functional
Vibrio cholerae [8] = experiment: Antibacterial activity against Vibrio cholerae assessed as inhibition of bacterial growth incubated for 24 hrs by broth microdilution method; assay type: functional
Vibrio cholerae [9] = experiment: Antibacterial activity against Vibrio cholerae measured after 18 to 20 hrs by broth microdilution method; assay type: functional; conditions: time 18-20 hrs
Shigella flexneri = experiment: Antibacterial activity against Shigella flexneri assessed as inhibition of bacterial growth incubated for 24 hrs by broth microdilution method; assay type: functional
Salmonella paratyphi = experiment: Antibacterial activity against Salmonella paratyphi A CICC 21501 incubated overnight by standard microtiter dilution method; assay type: functional, Salmonella enterica subsp. enterica serovar Paratyphi A; conditions: Salmonella enterica
Enterococcus faecalis = experiment: Antimicrobial activity against Enterococcus faecalis assessed as inhibition of microbial growth incubated for 18 hrs by CLSI protocol based Mueller-Hinton broth assay; assay type: functional
Staphylococcus aureus [10] = experiment: Antimicrobial activity against Staphylococcus aureus assessed as inhibition of microbial growth incubated for 18 hrs by CLSI protocol based Mueller-Hinton broth assay; assay type: functional
Klebsiella pneumoniae = experiment: Antimicrobial activity against Klebsiella pneumoniae assessed as inhibition of microbial growth incubated for 18 hrs by CLSI protocol based Mueller-Hinton broth assay; assay type: functional
Proteus vulgaris = experiment: Antimicrobial activity against Proteus vulgaris assessed as microbial growth inhibition incubated for 24 hrs by broth microdilution method; assay type: functional
Vibrio cholerae [11] = experiment: Antibacterial activity against Vibrio cholerae assessed as reduction in bacterial growth measured after 18 to 20 hrs by broth microdilution method; assay type: functional; conditions: time 18-20 hrs
Morganella morganii [12] = experiment: Antibacterial activity against Morganella morganii UM869 incubated for 16 to 18 hrs by broth microdilution method; assay type: functional; conditions: time 16-18 hrs
Providencia rettgeri = experiment: Antibacterial activity against Providencia rettgeri assessed as bacterial growth inhibition incubated for 18 hrs by CLSI protocol based Mueller-Hinton broth assay; assay type: functional
[13] = test system: Staphylococcus epidermidis; experiment: Antimicrobial activity against Staphylococcus epidermidis assessed as inhibition of microbial growth incubated for 18 hrs by CLSI protocol based Mueller-Hinton broth assay; assay type: functional
Escherichia coli [14] = experiment: microbe, parasite or virus in culture; conditions: ATCC 25922, 24 h
Description: Antibacterial activity against Escherichia coli ATCC 25922 assessed as reduction in bacterial growth measured after 24 hrs by Mueller-Hinton broth assay

Bacillus subtilis [15] = experiment: Antibacterial activity against Bacillus subtilis ATCC 465 assessed as reduction in bacterial growth measured after 24 hrs by Mueller-Hinton broth assay; assay type: functional
Staphylococcus aureus [16] = experiment: microbe, parasite or virus in culture; conditions: ATCC 25923, 24 h
Description: Antibacterial activity against Staphylococcus aureus ATCC 25923 assessed as reduction in bacterial growth measured after 24 hrs by Mueller-Hinton broth assay

Pseudomonas aeruginosa [17] = experiment: Antimicrobial activity against Pseudomonas aeruginosa assessed as diameter of inhibition zone incubated for 24 hrs by well diffusion assay; assay type: functional
Micrococcus luteus = experiment: Antimicrobial activity against Micrococcus luteus assessed as diameter of inhibition zone incubated for 24 hrs by well diffusion assay; assay type: functional
Bacillus subtilis [18] = experiment: Antimicrobial activity against Bacillus subtilis assessed as diameter of inhibition zone incubated for 24 hrs by well diffusion assay; assay type: functional
Pseudomonas aeruginosa [19] = experiment: Antibacterial activity against Pseudomonas aeruginosa assessed as inhibition of bacterial growth incubated for 4 to 20 hrs by resazurin based microplate reader analysis; assay type: functional; conditions: time 4-20 hrs
Bacillus subtilis [20] = experiment: Antibacterial activity against Bacillus subtilis assessed as inhibition of bacterial growth incubated for 4 to 20 hrs by resazurin based microplate reader analysis; assay type: functional; conditions: time 4-20 hrs
Escherichia coli [21] = experiment: Antibacterial activity against Escherichia coli assessed as inhibition of bacterial growth incubated for 4 to 20 hrs by resazurin based microplate reader analysis; assay type: functional; conditions: time 4-20 hrs
Staphylococcus aureus [22] = experiment: Antibacterial activity against Staphylococcus aureus assessed as inhibition of bacterial growth incubated for 4 to 20 hrs by resazurin based microplate reader analysis; assay type: functional; conditions: time 4-20 hrs

Cc1cc(NS(=O)(=O)c2ccc(N)cc2)no1 [SULFAMETHOXAZOLE]
MIC (Bacillus subtilis [1]): 5000 µg/mL (≈ 19.7 mM)
MIC (Shigella sonnei): 2500 µg/mL (≈ 9.87 mM)
MIC (Salmonella enterica): 2500 µg/mL
MIC (Morganella morganii [2]): 5000 µg/mL (≈ 19.7 mM)
MIC (Edwardsiella tarda): 5000 µg/mL
MIC (Vibrio parahaemolyticus): 1250 µg/mL (≈ 4.94 mM)
MIC (Salmonella typhimurium [3]): 2500 µg/mL
MIC (Plesiomonas shigelloides): 5000 µg/mL (≈ 19.7 mM)
MIC [4]: 5000 µg/mL (≈ 19.7 mM)
MIC (Escherichia coli [5]): 2500 µg/mL
MIC (Shigella boydii): 2500 µg/mL (≈ 9.87 mM)
MIC (Salmonella typhimurium [6]): 5000 µg/mL (≈ 19.7 mM)
MIC (Pseudomonas aeruginosa [7]): 78.1 µg/mL
MIC (Enterobacter sp.): 1250 µg/mL (≈ 4.94 mM)
MIC (Citrobacter freundii): 5000 µg/mL (≈ 19.7 mM)
MIC (Aeromonas hydrophila): 2500 µg/mL
MIC (Vibrio cholerae [8]): > 5000 µg/mL
MIC (Vibrio cholerae [9]): 312 µg/mL (≈ 1.23 mM)
MIC (Shigella flexneri): 2500 µg/mL (≈ 9.87 mM)
MIC (Salmonella paratyphi): 2500 µg/mL (≈ 9.87 mM)
MIC (Enterococcus faecalis): 5000 µg/mL
MIC (Staphylococcus aureus [10]): 5000 µg/mL
MIC (Klebsiella pneumoniae): 2500 µg/mL
MIC (Proteus vulgaris): 2500 µg/mL (≈ 9.87 mM)
MIC (Vibrio cholerae [11]): 5000 µg/mL (≈ 19.7 mM)
MIC (Morganella morganii [12]): 2500 µg/mL (≈ 9.87 mM)
MIC (Providencia rettgeri): 2500 µg/mL (≈ 9.87 mM)
MIC [13]: 2500 µg/mL

Cc1ccc(-c2c(N)c(C#N)nc3[nH]c(=O)[nH]c(=O)c23)cc1
MIC (Escherichia coli [14]): 512 µg/mL (≈ 1.75 mM)
MIC (Bacillus subtilis [15]): 2 µg/mL (≈ 0.00682 mM)
MIC (Staphylococcus aureus [16]): 32 µg/mL (≈ 0.109 mM)

Oc1ncnc(O)c1/N=N/c1ccc(/N=N/c2ccccc2)cc1
inhibition zone (IZ) (Pseudomonas aeruginosa [17]): 12 mm
inhibition zone (IZ) (Micrococcus luteus): 18 mm
inhibition zone (IZ) (Bacillus subtilis [18]): 13 mm

Cc1nc(NC(=O)c2cc(C(F)(F)F)cc(C(F)(F)F)c2)c2c(C(F)(F)F)cc(-c3ccccc3)nc2n1
MIC (Pseudomonas aeruginosa [19]): 50 µg/mL (≈ 0.0918 mM)
MIC (Bacillus subtilis [20]): 12.5 µg/mL (≈ 0.023 mM)
MIC (Escherichia coli [21]): 50 µg/mL (≈ 0.0918 mM)
MIC (Staphylococcus aureus [22]): 12.5 µg/mL (≈ 0.023 mM)
